Experimental data from patent US12404243B2, “Inhibitors of the Wnt/beta-catenin pathway” (The Regents of the University of California, priority 2018, dated 2025).
“Also recorded” adds a separate entry of the source.

Columns and labels:
SW480 tumor xenografts = experiment: Mouse xenografts of SW480 cells; format: in vivo, nude mice; details: for tumor volume: day 12 to day 21 (FIG. 9A); for tumor growth: mouse xenograft studies of human colon cancer, summary of FIGS. 7A-D, 8A-C, 9A-C
Description: 5×10^5 of SW480 cells were injected subcutaneously into the flank area of 6-8-week-old nude mice. Tumor volume was measured by using an electronic caliper and calculated with the formula length×width^2×0.5, every 2 days. 12 days after inoculation, tumor bearing mice were administered Wnt inhibitors (dissolved in 10% DMSO+20% Cremophor EL+70% normal saline) via intraperitoneal injection for 5 days per week for 10 days at 10 mg/kg. Animal body weights were measured before drug treatments and at the end of the experiments. At the end of the experiments, animals were euthanized with carbon dioxide, followed by cervical dislocation. The tumors were dissected and weighed on the digital balance. We housed mice in pathogen-free facilities under 12-h light and 12-h dark cycle. The animal protocol and experimental procedures were approved by the Division of Laboratory Animal Medicine of UCLA and were in accordance with the US National Institute of Health guidelines.

[1] = system: Wnt/β-catenin-mediated transcription; experiment: TCF-luciferase activity assay in 293T/Top/β-cat* cells; format: cell-based; details: summary of FIGS. 5A, B (293T/Top cells + LiCl) and 6A-C (293T/Top/β-cat* cells)
Description: 293T cells were maintained in DMEM medium containing 10% FBS and antibiotics (penicillin and streptomycin) at 37° C. in 5% CO2. Cells were stably infected with lentiviruses expressing the TopFlash reporter (293T/Top cells). The β-catenin mutant (β-cat*, the constitutively active mutant) construct was prepared using the retroviral expression vector by standard PCR. For viral transduction, retrovirus was obtained by co-trasfection of pQCXIP-β-cat* with packaging plasmids into 293T cells following the manufacturer's instructions. 293T/Top stable cells were seeded in 10 cm dish and incubated overnight. The next day cells were treated with retroviral particles. After 12 hours, the medium was replaced with fresh medium. 2 days post virus infection, the cells were selected with puromycin for 5 days to generate the 293T/Top/β-cat* stable cell line.
293 T/Top/β-cat* cells were plated at 40%-50% confluences in 12-well plate for 8 hours and then treated with Wnt inhibitors overnight. The luciferase activity of total cell lysates was measured using Luciferase Assay System (Promega). The related TCF-luciferase activity was normalized against the protein concentration of each cell lysate sample.

[2] = SW480 xenografts, 10 mg/kg, day 12 to day 21 (FIG. 9B)
[3] = SW480 xenografts, 10 mg/kg, day 12 to day 21 (FIG. 9C)
[4] = SW480 xenografts, 10 mg/kg, day 12 to 22 (FIG. 16A)
[5] = SW480 xenografts, 10 mg/kg, day 12 to 22 (FIG. 16B)
[6] = SW480 xenografts, 10 mg/kg, day 12 to 22 (FIG. 16C)
[7] = SW480 xenografts, 10 mg/kg, day 12 to 22 (FIG. 7A)
[8] = SW480 xenografts, 10 mg/kg, day 12 to 22 (FIG. 7B)
[9] = SW480 xenografts, 10 mg/kg, day 12 to 22 (FIG. 7C)
[10] = SW480 xenografts, 10 mg/kg, day 12 to day 20 (FIG. 8B)

O=C1/C(=C/c2ccc(F)c(F)c2)CN(C(=O)c2ccc(OCCN3CCCCC3)cc2)C/C1=C\c1ccc(F)c(F)c1 [JC082, 3,5-Bis((E)-3,4-difluorobenzylidene)-1-(4-(2-(piperidin-1-yl)ethoxy)benzoyl)piperidin-4-one]
tumor volume (SW480 tumor xenografts; SW480 xenografts, 10 mg/kg): significantly reduce tumor volume
tumor sizes at the end of treatment (SW480 tumor xenografts; [2]): significantly reduced the size of the tumors recovered
tumor weights at the end of treatment (SW480 tumor xenografts; [3]): significantly reduce the weight of tumors recovered
tumor growth (SW480 tumor xenografts): significantly inhibited the tumor growth

CN(C)CCOc1ccc(NC(=O)C2C/C(=C\c3cc(Cl)cc(Cl)c3)C(=O)/C(=C/c3cc(Cl)cc(Cl)c3)C2)cc1 (centres unmarked) [JC138, 3,5-Bis((E)-3,5-dichlorobenzylidene)-N-(4-(2-(dimethylamino)ethoxy)phenyl)-4-oxocyclohexane-1-carboxamide]
actual tumor sizes at the end of treatment (SW480 tumor xenografts; [4]): reduced the size of tumors recovered
tumor weights at the end of treatment (SW480 tumor xenografts; [5]): significantly reduced the weight of tumors recovered
tumor volumes (SW480 tumor xenografts; [6]): significantly reduced tumor volumes

O=C1/C(=C/c2ccc(F)c(F)c2)CN(C(=O)CCN2CCCCC2)C/C1=C\c1ccc(F)c(F)c1 [JC048, 3,5-Bis((E)-3,4-difluorobenzylidene)-1-(3-(piperidin-1-yl)propanoyl)piperidin-4-one]
Wnt/β-catenin-mediated transcription [1]: significantly inhibited

CN(C)CCS(=O)(=O)N1C/C(=C\c2ccc(F)c(F)c2)C(=O)/C(=C/c2ccc(F)c(F)c2)C1 [JC060, 3,5-Bis((E)-3,4-difluorobenzylidene)-1-((2-(dimethylamino)ethyl)sulfonyl)piperidin-4-one]
Wnt/β-catenin-mediated transcription [1]: significantly inhibited
tumor volumes (SW480 tumor xenografts; [7]): significantly reduced tumor volumes
tumor sizes at the end of treatment (SW480 tumor xenografts; [8]): significantly reduced the size of tumors recovered
tumor weights at the end of treatment (SW480 tumor xenografts; [9]): significantly reduced the weight of tumors recovered
tumor volume (SW480 tumor xenografts; SW480 xenografts, 10 mg/kg): significantly reduce tumor volume
tumor sizes at the end of treatment (SW480 tumor xenografts; [2]): significantly reduced the size of the tumors recovered
tumor weights at the end of treatment (SW480 tumor xenografts; [3]): significantly reduce the weight of tumors recovered
tumor growth (SW480 tumor xenografts): significantly inhibited the tumor growth

CCN(CC)CCS(=O)(=O)N1C/C(=C\c2ccc(F)c(F)c2)C(=O)/C(=C/c2ccc(F)c(F)c2)C1 [JC098, 1-((2-(Diethylamino)ethyl)sulfonyl)-3,5-bis((E)-3,4-difluorobenzylidene)piperidin-4-one]
actual tumor sizes at the end of treatment (SW480 tumor xenografts; [10]): reduced the size of tumors recovered

CCN(CC)CCC(=O)N1C/C(=C\c2ccc(F)c(F)c2)C(=O)/C(=C/c2ccc(F)c(F)c2)C1 [JC049, 1-(3-(Diethylamino)propanoyl)-3,5-bis((E)-3,4-difluorobenzylidene)piperidin-4-one]
Wnt/β-catenin-mediated transcription [1]: significantly inhibited
tumor volumes (SW480 tumor xenografts; [7]): significantly reduced tumor volumes
tumor sizes at the end of treatment (SW480 tumor xenografts; [8]): significantly reduced the size of tumors recovered
tumor weights at the end of treatment (SW480 tumor xenografts; [9]): significantly reduced the weight of tumors recovered
actual tumor sizes at the end of treatment (SW480 tumor xenografts; [4]): reduced the size of tumors recovered
tumor weights at the end of treatment (SW480 tumor xenografts; [5]): significantly reduced the weight of tumors recovered
tumor volumes (SW480 tumor xenografts; [6]): significantly reduced tumor volumes
tumor volumes (SW480 tumor xenografts; SW480 xenografts, 10 mg/kg, day 12 to day 20 (FIG. 8A)): significantly reduced tumor volumes
actual tumor sizes at the end of treatment (SW480 tumor xenografts; [10]): reduced the size of tumors recovered
actual tumor weights at the end of treatment (SW480 tumor xenografts; SW480 xenografts, 10 mg/kg, day 12 to day 20 (FIG. 8C)): significantly reduced the weight of tumors recovered
tumor volume (SW480 tumor xenografts; SW480 xenografts, 10 mg/kg): significantly reduce tumor volume
tumor sizes at the end of treatment (SW480 tumor xenografts; [2]): significantly reduced the size of the tumors recovered
tumor weights at the end of treatment (SW480 tumor xenografts; [3]): significantly reduce the weight of tumors recovered
tumor growth (SW480 tumor xenografts): significantly inhibited the tumor growth; also recorded: showed the strongest inhibition

CN(C)CCC(=O)N1C/C(=C\c2cccc(C(F)(F)F)c2)C(=O)/C(=C/c2cccc(C(F)(F)F)c2)C1 [JC018, 1-(3-(Dimethylamino)propanoyl)-3,5-bis((E)-3-(trifluoromethyl)benzylidene)piperidin-4-one]
Wnt/β-catenin-mediated transcription [1]: significantly inhibited

CN(C)CCOc1ccc(C(=O)NC2C/C(=C\c3ccc(F)c(F)c3)C(=O)/C(=C/c3ccc(F)c(F)c3)C2)cc1 (centres unmarked) [JC081, N-(3,5-Bis((E)-3,4-difluorobenzylidene)-4-oxocyclohexyl)-4-(2-(dimethylamino)ethoxy)benzamide]
Wnt/β-catenin-mediated transcription [1]: significantly inhibited
tumor volume (SW480 tumor xenografts; SW480 xenografts, 10 mg/kg): significantly reduce tumor volume
tumor sizes at the end of treatment (SW480 tumor xenografts; [2]): significantly reduced the size of the tumors recovered
tumor weights at the end of treatment (SW480 tumor xenografts; [3]): significantly reduce the weight of tumors recovered
tumor growth (SW480 tumor xenografts): significantly inhibited the tumor growth

CN(C)CCC(=O)N1C/C(=C\c2ccc(F)c(F)c2)C(=O)/C(=C/c2ccc(F)c(F)c2)C1 [JC026, 3,5-Bis((E)-3,4-difluorobenzylidene)-1-(3-(dimethylamino)propanoyl)piperidin-4-one]
Wnt/β-catenin-mediated transcription [1]: significantly inhibited
tumor volumes (SW480 tumor xenografts; [7]): significantly reduced tumor volumes
tumor sizes at the end of treatment (SW480 tumor xenografts; [8]): significantly reduced the size of tumors recovered
tumor weights at the end of treatment (SW480 tumor xenografts; [9]): significantly reduced the weight of tumors recovered
tumor growth (SW480 tumor xenografts): significantly inhibited the tumor growth

CN(C)CCC(=O)N1C/C(=C\c2ccccn2)C(=O)/C(=C/c2ccccn2)C1 [JC021, (3E,5E)-1-(3-(Dimethylamino)propanoyl)-3,5-bis(pyridin-2-ylmethylene)piperidin-4-one]
Wnt/β-catenin-mediated transcription [1]: significantly inhibited

CN(C)CCC(=O)N1C/C(=C\c2ccc(C(F)(F)F)cc2)C(=O)/C(=C/c2ccc(C(F)(F)F)cc2)C1 [JC022, 1-(3-(Dimethylamino)propanoyl)-3,5-bis((E)-4-(trifluoromethyl)benzylidene)piperidin-4-one]
Wnt/β-catenin-mediated transcription [1]: significantly inhibited

CN(C)CCC(=O)N1C/C(=C\c2cc(Cl)cc(Cl)c2)C(=O)/C(=C/c2cc(Cl)cc(Cl)c2)C1 [JC028, 3,5-Bis((E)-3,5-dichlorobenzylidene)-1-(3-(dimethylamino)propanoyl)piperidin-4-one]
Wnt/β-catenin-mediated transcription [1]: significantly inhibited

O=C1/C(=C/c2ccc(F)c(F)c2)CN(C(=O)CCC(=O)N2CCCC2)C/C1=C\c1ccc(F)c(F)c1 [JC072, 1-(3,5-Bis((E)-3,4-difluorobenzylidene)-4-oxopiperidin-1-yl)-4-(pyrrolidin-1-yl)butane-1,4-dione]
Wnt/β-catenin-mediated transcription [1]: significantly inhibited

CN(C)CCNC(=O)C1C/C(=C\c2cc(Cl)cc(Cl)c2)C(=O)/C(=C/c2cc(Cl)cc(Cl)c2)C1 (centres unmarked) [JC137, 3,5-Bis((E)-3,5-dichlorobenzylidene)-N-(2-(dimethylamino)ethyl)-4-oxocyclohexane-1-carboxamide]
actual tumor sizes at the end of treatment (SW480 tumor xenografts; [4]): reduced the size of tumors recovered

CN(C)CCC(=O)NC1C/C(=C\c2ccc(F)c(F)c2)C(=O)/C(=C/c2ccc(F)c(F)c2)C1 (centres unmarked) [JC070, N-(3,5-Bis((E)-3,4-difluorobenzylidene)-4-oxocyclohexyl)-3-(dimethylamino)propanamide]
Wnt/β-catenin-mediated transcription [1]: significantly inhibited
tumor volumes (SW480 tumor xenografts; [7]): significantly reduced tumor volumes
tumor sizes at the end of treatment (SW480 tumor xenografts; [8]): significantly reduced the size of tumors recovered
tumor weights at the end of treatment (SW480 tumor xenografts; [9]): significantly reduced the weight of tumors recovered
tumor growth (SW480 tumor xenografts): showed some inhibition, but did not reach significance

CN(C)CCC(=O)N1C/C(=C\c2ccc(Cl)c(Cl)c2)C(=O)/C(=C/c2ccc(Cl)c(Cl)c2)C1 [JC032, 3,5-Bis((E)-3,4-dichlorobenzylidene)-1-(3-(dimethylamino)propanoyl)piperidin-4-one]
Wnt/β-catenin-mediated transcription [1]: significantly inhibited
